Test results taken from patent US11028090B2 (Dong Wha Pharm. Co., Ltd., priority 2017, dated 2021).
pIC50: −log10 of the molar value. Read-outs that look alike come from different tables or passages of the source.

Tests used:
[1] = target: BRD4 (BD1+BD2) bromodomain (Homo sapiens (Human), UniProt O60885); assay: BRD4 binding inhibition (AlphaScreen, GST-BRD4 vs tetraacetylated histone H4 peptide)
How it was run: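 AlphaScreen read after 30 min dark incubation at room temperature with glutathione acceptor/streptavidin donor beads (10 μg/ml each). The beads were added to compound plus 100 nM biotin-H4 (K5,8,12,16-acetyl) peptide and 100 nM GST-BRD4 BD1+BD2 in pH 7.4 HEPES/Tween/BSA/DTT buffer.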

[2] = test system: acute myelogenous leukemia cells (MV-4-11 cells); assay: Cytotoxicity to acute myelogenous leukemia cells (MV-4-11 cells), CCK-8; conditions: Homo sapiens, MV4-11, 72 h
[3] = GST-BRD4 (BD1+BD2) / biotinylated acetyl-histone H4 (Lys5,8,12,16) peptide, read-out: IC50, BRD4 binding inhibition
[4] = GST-BRD4 (BD1+BD2) vs biotinylated acetyl-histone H4 peptide, AlphaScreen, read-out: BRD4 IC50
[5] = read-out: IC50, cytotoxicity against acute myelogenous leukemia cells
[6] = read-out: MV-4-11 Cytotoxicity IC50

| Structure (SMILES) | pIC50 [1, 3] | pIC50 [1, 4] | pIC50 [2, 5] | pIC50 [2, 6] | pIC50 ([1]; IC50, BRD4 binding inhibition, GST-BRD4 (BD1+BD2) / biotinylated acetyl-histone H4 (Lys5,8,12,16) peptide) |
| --- | --- | --- | --- | --- | --- |
| Cc1nnc2c(NCCCCNC(=O)CC(C)C)nc3cc(-n4ccnc4)ccc3n12 [Example 492, N-[4-(7-imidazole-1-yl-1-methyl-[1,2,4]triazolo[4,3-a]quinoxaline-4-ylamino)-butyl]-3-methyl-butyramide] | ≥ 7.30 | 7.89 | ≥ 6.70 | 7.10 | – |
| COCCOc1ccc2c(c1)nc(NCCCCNC(=O)C(NC(=O)OC(C)(C)C)C(C)C)c1nnc(C)n12 (centres unmarked) [Example 396, (1-{4-[7-(2-methoxy-ethoxy)-1-methyl-[1,2,4]triazolo[4,3-a]quinoxaline-4-ylamino]-butylcarbamoyl}-2-methyl-propyl)-carbamic acid-tert-butylester] | ≥ 8.00 | 8.15 | – | 6.12 | – |
| COc1ccc2c(c1)nc(NCCCCNC(=O)[C@@H](O)C(C)C)c1nnc(C)n12 [Example 299, 2-(S)-hydroxy-N-[4-(7-methoxy-1-methyl-[1,2,4]triazolo[4,3-a]quinoxaline-4-ylamino)-butyl]-3-methyl-butyramide] | ≥ 8.00 | 8.15 | – | 6.43 | – |
| CCCn1c(-c2ccc3c(c2)nc(NCCCCNC(=O)CC(C)C)c2nnc(C)n23)nc2ccccc21 [Example 240, 3-methyl-N-{4-[1-methyl-7-(1-propyl-1H-benzoimidazole-2-yl)-[1,2,4]triazolo[4,3-a]quinoxaline-4-ylamino]-butyl}-butyramide] | ≥ 8.00 | 9.05 | ≥ 6.70 | 6.80 | – |
| Cc1nnc2c(NCCCCNC(=O)CC(C)C)nc3cc(N4CCOCC4)ccc3n12 [Example 499, 3-methyl-N-[4-(1-methyl-7-morpholine-4-yl-[1,2,4]triazolo[4,3-a]quinoxaline-4-ylamino)-butyl]-butyramide] | ≥ 8.00 | 8.00 | ≥ 6.70 | 6.85 | – |
| Cc1nnc2c(NCCCCNC(=O)[C@@H](F)C(C)C)nc3cc(N4CCc5sccc5C4)ccc3n12 [Example 529, N-{4-[7-(6,7-dihydro-4H-thiano[3,2-c]pyridine-5-yl)-1-methyl-[1,2,4]triazolo[4,3-a]quinoxaline-4-ylamino]-butyl}-2-(S)-fluoro-3-methyl-butyramide] | ≥ 7.30 | 7.51 | ≥ 6.70 | 6.97 | – |
| COc1ccc2c(c1)nc(NCCCCNC(=O)[C@@H](NC(=O)[C@@H](F)C(C)C)C(C)C)c1nnc(C)n12 [Example 321, (S)-2-(S)-fluoro-N-{1-[4-(7-methoxy-1-methyl-[1,2,4]triazolo[4,3-a]quinoxaline-4-ylamino)-butylcarbamoyl]-2-methyl-propyl}-3-methyl-butyramide] | ≥ 7.30 | 7.92 | – | 6.26 | – |
| Cc1nnc2c(NCCCCNC(=O)CC(C)C)nc3cc(-c4nc5ccccc5[nH]4)ccc3n12 [Example 224, N-{4-[7-(1H-benzoimidazole-2-yl)-1-methyl-[1,2,4]triazolo[4,3-a]quinoxaline-4-ylamino]-butyl}-3-methyl-butyramide] | ≥ 7.30 | 7.89 | ≥ 6.70 | 8.52 | – |
| Cc1nnc2c(NCCCCNC(=O)c3ccccc3Cl)nc3cc(OCCN4CCOCC4)ccc3n12 [Example 439, 2-chloro-N-{4-[1-methyl-7-(2-morpholine-4-yl-ethoxy)-[1,2,4]triazolo[4,3-a]quinoxaline-4-ylamino]-butyl}-benzamide] | ≥ 7.30 | 7.42 | ≥ 6.70 | 7.00 | – |
| COc1ccc2c(c1)nc(NCCCCNC(=O)[C@H](C(C)C)N(C)C)c1nnc(C)n12 [Example 313, 2-(S)-dimethylamino-N-[4-(7-methoxy-1-methyl-[1,2,4]triazolo[4,3-a]quinoxaline-4-ylamino)-butyl]-3-methyl-butyramide] | ≥ 7.30 | 7.48 | – | 6.24 | – |
| Cc1nnc2c(NCCCCNC(=O)Cc3cccs3)nc3cc(OCCN4CCOCC4)ccc3n12 [Example 438, N-{4-[1-methyl-7-(2-morpholine-4-yl-ethoxy)-[1,2,4]triazolo[4,3-a]quinoxaline-4-ylamino]-butyl}-2-thiophene-2-yl-acetamide] | ≥ 7.30 | 7.43 | ≥ 6.70 | 7.48 | – |
| Cc1nnc2c(NCCCCNC(=O)[C@H](O)C(C)C)nc3cc(-c4nc5ccccc5[nH]4)ccc3n12 [Example 226, N-{4-[7-(1H-benzoimidazole-2-yl)-1-methyl-[1,2,4]triazolo[4,3-a]quinoxaline-4-ylamino]-butyl}-2-(R)-hydroxy-3-methyl-butyramide] | ≥ 8.00 | 8.40 | – | 6.54 | – |
| COCCOc1ccc2c(c1)nc(NCCCCNC(=O)[C@@H](O)C(C)C)c1nnc(C)n12 [Example 389, 2-(S)-hydroxy-N-{4-[7-(2-methoxy-ethoxy)-1-methyl-[1,2,4]triazolo[4,3-a]quinoxaline-4-ylamino]-butyl}-3-methyl-butyramide] | ≥ 8.00 | 8.70 | ≥ 6.70 | 7.10 | – |
| Cc1nnc2c(NCCCCNC(=O)[C@H](O)C(C)C)nc3cc(N4C[C@@H](C)O[C@@H](C)C4)ccc3n12 [Example 512, N-{4-[7-(2,6-dimethyl-morpholine-4-yl)-1-methyl-[1,2,4]triazolo[4,3-a]quinoxaline-4-ylamino]-butyl}-2-(R)-hydroxy-3-methyl-butyramide] | – | 7.19 | – | 6.20 | – |
| COc1cc2nc(NCCCCNC(=O)Cc3cccs3)c3nnc(C)n3c2cc1C(F)(F)F [Example 480, N-[4-(7-methoxy-1-methyl-8-trifluoromethyl-[1,2,4]triazolo[4,3-a]quinoxaline-4-ylamino)-butyl]-2-thiophene-2-yl-acetamide] | ≥ 8.00 | 8.05 | ≥ 6.70 | 7.10 | – |
| COc1cc2nc(NCCCCNC(=O)CC(C)C)c3nnc(C)n3c2cc1NC(=O)CC(C)C [Example 562, N-{4-[7-methoxy-1-methyl-8-(3-methyl-butyrylamino)-[1,2,4]triazolo[4,3-a]quinoxaline-4-ylamino]-butyl}-3-methyl-butyramide] | ≥ 7.30 | 7.49 | – | 6.43 | – |
| Cc1nnc2c(NCCCCNC(=O)CC(C)C)nc3cc(N)ccc3n12 [Example 245, N-[4-(7-amino-1-methyl-[1,2,4]triazolo[4,3-a]quinoxaline-4-ylamino)-butyl]-3-methyl-butyramide] | ≥ 7.30 | 7.49 | – | 6.44 | – |
| COc1ccc2c(c1)nc(NCCCCNC(=O)Oc1ccccc1)c1nnc(C)n12 [Example 333, [4-(7-methoxy-1-methyl-[1,2,4]triazolo[4,3-a]quinoxaline-4-ylamino)-butyl]-carbamic acid phenylester] | – | 7.74 | ≥ 6.70 | 6.96 | ≥ 7.30 |
| CCOc1ccc2c(c1)nc(NCCCCNC(=O)OC1CCCC1)c1nnc(C)n12 [Example 445, [4-(7-ethoxy-1-methyl-[1,2,4]triazolo[4,3-a]quinoxaline-4-ylamino)-butyl]-carbamic acid cyclopentylester] | ≥ 7.30 | 7.89 | ≥ 6.70 | 7.00 | – |
| COc1ccc2c(c1)nc(NCCCCNC(=O)[C@@H](NS(C)(=O)=O)C(C)C)c1nnc(C)n12 [Example 327, 2-(S)-methanesulfonylamino-N-[4-(7-methoxy-1-methyl-[1,2,4]triazolo[4,3-a]quinoxaline-4-ylamino)-butyl]-3-methyl-butyramide] | ≥ 7.30 | 7.74 | ≥ 6.70 | 6.85 | – |
| Cc1nnc2c(NCCCCNC(=O)CC(C)C)nc3cc(OC4CCOCC4)ccc3n12 [Example 344, 3-methyl-N-{4-[1-methyl-7-(tetrahydro-pyran-4-yloxy)-[1,2,4]triazolo[4,3-a]quinoxaline-4-ylamino]-butyl}-butyramide] | ≥ 8.00 | 8.00 | ≥ 6.70 | 6.92 | – |
| COc1cc2nc(NCCCCN)c3nnc(C)n3c2cc1C [Example 465, N^1-(7-methoxy-1,8-dimethyl-[1,2,4]triazolo[4,3-a]quinoxaline-4-yl)-butane-1,4-diamine ditrifluoroacetic acid] | – | 7.14 | – | 6.16 | – |
| COCCOc1ccc2c(c1)nc(NCCCCNC(=O)OC1CCCC1)c1nnc(C)n12 [Example 371, {4-[7-(2-methoxy-ethoxy)-1-methyl-[1,2,4]triazolo[4,3-a]quinoxaline-4-ylamino]-butyl}-carbamic acid cyclopentylester] | ≥ 8.00 | 8.15 | ≥ 6.70 | 6.92 | – |
| Cc1nnc2c(NCCCCNC(=O)CC(C)C)nc3ccc(NCCCC#N)cc3n12 [Example 553, N-{4-[8-(3-cyano-propylamino)-1-methyl-[1,2,4]triazolo[4,3-a]quinoxaline-4-ylamino]-butyl}-3-methyl-butyramide] | ≥ 7.30 | 7.62 | ≥ 6.70 | 6.76 | – |
| COc1ccc2c(c1)nc(NCCCCNC(=O)Cc1ccccc1)c1nnc(C)n12 [Example 329, N-[4-(7-methoxy-1-methyl-[1,2,4]triazolo[4,3-a]quinoxaline-4-ylamino)-butyl]-2-phenyl-acetamide] | ≥ 7.30 | 7.46 | ≥ 6.70 | 7.72 | – |
